Measured values reported in ChEMBL document CHEMBL5500360, “Discovery of N-(4-((6-(3,5- Dimethoxyphenyl)-9H-purine derivatives as irreversible covalent FGFR inhibitors” (Eur J Med Chem, 2024).
Active and inactive are the calls of the source. No cut-off for these calls is given here.

Assays:
[1] = molecular target: Fibroblast growth factor receptor 2 (Homo sapiens, UniProt P21802); assay: Inhibition of FGFR2 (unknown origin) by ELISA
[2] = molecular target: Fibroblast growth factor receptor 3 (Homo sapiens, UniProt P22607); assay: Inhibition of FGFR3 (unknown origin) by ELISA
MDA-MB-231 [3] = assay: Cell cycle arrest in human MDA-MB-231 cells assessed as accumulation of G0-G1 phase cells at 2.5 uM incubated for 24 hrs by […]PI staining based flow cytometric analysis (reference value: 41.83%); type: functional
MDA-MB-231 [4] = assay: Cell cycle arrest in human MDA-MB-231 cells assessed as accumulation of G2-M phase cells at 2.5 uM incubated for 24 hrs by […]PI staining based flow cytometric analysis (reference value: 16.88%); type: functional
MDA-MB-231 [5] = assay: Cell cycle arrest in human MDA-MB-231 cells assessed as accumulation of S phase cells at 2.5 uM incubated for 24 hrs by […]PI staining based flow cytometric analysis (reference value: 41.29%); type: functional
MDA-MB-231 [6] = assay: Cell cycle arrest in human MDA-MB-231 cells assessed as accumulation of G0-G1 phase cells at 5 uM incubated for 24 hrs by […]PI staining based flow cytometric analysis (reference value: 41.83%); type: functional
MDA-MB-231 [7] = assay: Cell cycle arrest in human MDA-MB-231 cells assessed as accumulation of G2-M phase cells at 5 uM incubated for 24 hrs by […]PI staining based flow cytometric analysis (reference value: 16.88%); type: functional
MDA-MB-231 [8] = assay: Cell cycle arrest in human MDA-MB-231 cells assessed as accumulation of S phase cells at 5 uM incubated for 24 hrs by […]PI staining based flow cytometric analysis (reference value: 41.29%); type: functional
MDA-MB-231 [9] = assay: Cell cycle arrest in human MDA-MB-231 cells assessed as accumulation of G2-M phase cells at 10 uM incubated for 24 hrs by […]PI staining based flow cytometric analysis (reference value: 16.88%); type: functional
MDA-MB-231 [10] = assay: Induction of apoptosis in human MDA-MB-231 cells assessed as viable cells at 2.5 uM incubated for 24 hrs by Annexin V-FITC/PI staining based flow cytometric analysis (reference value: 99.645%); type: functional; details: read-out: Activity
MDA-MB-231 [11] = assay: Induction of apoptosis in human MDA-MB-231 cells assessed as late apoptotic cells at 2.5 uM incubated for 24 hrs by Annexin V-FITC/PI staining based flow cytometric analysis (reference value: 0.161 %); type: functional
MDA-MB-231 [12] = assay: Induction of apoptosis in human MDA-MB-231 cells assessed as necrotic cells at 2.5 uM incubated for 24 hrs by Annexin V-FITC/PI staining based flow cytometric analysis (reference value: 0.063 %); type: functional
MDA-MB-231 [13] = assay: Induction of apoptosis in human MDA-MB-231 cells assessed as early apoptotic cells at 5 uM incubated for 24 hrs by Annexin V-FITC/PI staining based flow cytometric analysis (reference value: 0.131 %); type: functional
MDA-MB-231 [14] = assay: Induction of apoptosis in human MDA-MB-231 cells assessed as early apoptotic cells at 10 uM incubated for 24 hrs by Annexin V-FITC/PI staining based flow cytometric analysis (reference value: 0.131 %); type: functional
MDA-MB-231 [15] = assay: Induction of apoptosis in human MDA-MB-231 cells assessed as apoptotic cells at 10 uM incubated for 24 hrs by Annexin V-FITC/PI staining based flow cytometric analysis relative to control; type: functional
Cell membrane = assay: Induction of mitochondrial membrane potential loss in human MDA-MB-231 cells assessed as increase in JC-1 monomer by measuring green fluorescence incubated for 12 hrs by confocal microscopic analysis; type: cell membranes; details: dose 2.5-10 µM
MDA-MB-231 [16] = assay: Induction of apoptosis in human MDA-MB-231 cells assessed as inhibition of total PARP protein expression incubated for 24 hrs by Western blot analysis; type: functional, cell-based; details: dose 2.5-10 µM
MDA-MB-231 [17] = assay: Induction of apoptosis in human MDA-MB-231 cells assessed as inhibition of Bcl-2 protein expression incubated for 24 hrs by Western blot analysis; type: functional, cell-based; details: dose 2.5-10 µM
MDA-MB-231 [18] = assay: Induction of apoptosis in human MDA-MB-231 cells assessed as increase in Bax protein expression incubated for 24 hrs by Western blot analysis; type: functional, cell-based; details: dose 2.5-10 µM
MDA-MB-231 [19] = assay: Effect on ERK protein expression in human MDA-MB-231 cells at 5 to 10 uM incubated for 24 hrs by Western blot analysis; type: functional, cell-based; details: dose 5-10 µM
MDA-MB-231 [20] = assay: Effect on PLCgamma protein expression in human MDA-MB-231 cells at 5 to 10 uM incubated for 24 hrs by Western blot analysis; type: functional, cell-based; details: dose 5-10 µM
[21] = Metabolic stability in human liver microsomes assessed as parent compound remaining at 1 uM measured after 5 mins by LC-MS/MS analysis; type: ADME, Microsome; details: read-out: Stability
[22] = Metabolic stability in human liver microsomes assessed as parent compound remaining at 1 uM measured after 30 mins by LC-MS/MS analysis; type: ADME, Microsome; details: read-out: Stability
[23] = Metabolic stability in rat liver microsomes assessed as parent compound remaining at 1 uM measured after 5 mins by LC-MS/MS analysis; type: ADME, Microsome; details: read-out: Stability
[24] = Metabolic stability in rat liver microsomes assessed as parent compound remaining at 1 uM measured after 15 mins by LC-MS/MS analysis; type: ADME, Microsome; details: read-out: Stability
[25] = Metabolic stability in mouse liver microsomes assessed as parent compound remaining at 1 uM measured after 5 mins by LC-MS/MS analysis; type: ADME, Microsome; details: read-out: Stability
[26] = Metabolic stability in mouse liver microsomes assessed as parent compound remaining at 1 uM measured after 45 mins by LC-MS/MS analysis; type: ADME, Microsome; details: read-out: Stability
[27] = Metabolic stability in rat liver microsomes assessed as intrinsic clearance at 1 uM incubated for 45 mins by LC-MS/MS analysis; type: ADME, Microsome; details: read-out: CLH
MDA-MB-231 [28] = assay: Antitumor activity against human MDA-MB-231 cells xenografted in female BALB/c athymic nude mouse assessed as tumor growth inhibition at 10 mg/kg, po administered once a day via gavage for 21 days relative to control; type: functional; details: MDA-MB-231, 504 h, time 21 day, read-out: TGI
MDA-MB-231 [29] = assay: Antitumor activity against human MDA-MB-231 cells xenografted in female BALB/c athymic nude mouse assessed as tumor growth inhibition at 20 mg/kg, po administered once a day via gavage for 21 days relative to control; type: functional; details: MDA-MB-231, 504 h, time 21 day, read-out: TGI
[30] = Toxicity in BALB/c athymic nude mouse xenografted with human MDA-MB-231 cells assessed as body weight loss at 10 to 30 mg/kg, po administered once a day via gavage for 21 days; type: organism-based; details: in vivo, 504 h, dose 10-30 mg/kg, time 21 day
[31] = Toxicity in BALB/c athymic nude mouse xenografted with human MDA-MB-231 cells assessed as effect on heart at 10 to 30 mg/kg, po administered once a day via gavage for 21 days by H and E staining based analysis; type: organism-based; details: in vivo, 504 h, dose 10-30 mg/kg, time 21 day
[32] = Toxicity in BALB/c athymic nude mouse xenografted with human MDA-MB-231 cells assessed as effect on spleen at 10 to 30 mg/kg, po administered once a day via gavage for 21 days by H and E staining based analysis; type: organism-based; details: in vivo, 504 h, dose 10-30 mg/kg, time 21 day
MDA-MB-231 [33] = assay: cells; details: Homo sapiens, MDA-MB-231, 72 h
HepG2 = assay: cells; details: Homo sapiens, HepG2, 72 h

Chain of Fibroblast growth factor receptor 3 (P22607 whole entry): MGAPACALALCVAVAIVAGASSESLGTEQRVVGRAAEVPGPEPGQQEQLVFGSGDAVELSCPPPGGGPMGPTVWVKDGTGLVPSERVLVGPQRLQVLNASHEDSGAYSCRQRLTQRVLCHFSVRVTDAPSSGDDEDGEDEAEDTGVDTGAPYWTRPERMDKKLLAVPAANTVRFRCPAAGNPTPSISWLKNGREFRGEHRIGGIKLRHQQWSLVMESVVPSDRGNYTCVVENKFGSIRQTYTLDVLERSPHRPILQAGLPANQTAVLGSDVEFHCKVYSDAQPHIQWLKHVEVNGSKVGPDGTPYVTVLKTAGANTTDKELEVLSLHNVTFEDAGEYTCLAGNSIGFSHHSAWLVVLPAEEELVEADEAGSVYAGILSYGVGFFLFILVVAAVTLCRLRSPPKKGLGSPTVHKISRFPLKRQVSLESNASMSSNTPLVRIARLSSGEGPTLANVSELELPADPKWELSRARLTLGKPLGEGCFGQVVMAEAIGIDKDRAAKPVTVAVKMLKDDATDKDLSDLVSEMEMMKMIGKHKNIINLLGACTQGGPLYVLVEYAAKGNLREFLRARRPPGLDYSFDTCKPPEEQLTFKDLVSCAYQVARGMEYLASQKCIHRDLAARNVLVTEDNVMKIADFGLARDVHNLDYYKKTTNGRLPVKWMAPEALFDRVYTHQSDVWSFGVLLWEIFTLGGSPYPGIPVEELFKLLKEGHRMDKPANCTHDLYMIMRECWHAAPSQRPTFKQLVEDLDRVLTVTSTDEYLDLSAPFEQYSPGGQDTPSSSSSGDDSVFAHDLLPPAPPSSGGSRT
Chain of Fibroblast growth factor receptor 2 (P21802 whole entry): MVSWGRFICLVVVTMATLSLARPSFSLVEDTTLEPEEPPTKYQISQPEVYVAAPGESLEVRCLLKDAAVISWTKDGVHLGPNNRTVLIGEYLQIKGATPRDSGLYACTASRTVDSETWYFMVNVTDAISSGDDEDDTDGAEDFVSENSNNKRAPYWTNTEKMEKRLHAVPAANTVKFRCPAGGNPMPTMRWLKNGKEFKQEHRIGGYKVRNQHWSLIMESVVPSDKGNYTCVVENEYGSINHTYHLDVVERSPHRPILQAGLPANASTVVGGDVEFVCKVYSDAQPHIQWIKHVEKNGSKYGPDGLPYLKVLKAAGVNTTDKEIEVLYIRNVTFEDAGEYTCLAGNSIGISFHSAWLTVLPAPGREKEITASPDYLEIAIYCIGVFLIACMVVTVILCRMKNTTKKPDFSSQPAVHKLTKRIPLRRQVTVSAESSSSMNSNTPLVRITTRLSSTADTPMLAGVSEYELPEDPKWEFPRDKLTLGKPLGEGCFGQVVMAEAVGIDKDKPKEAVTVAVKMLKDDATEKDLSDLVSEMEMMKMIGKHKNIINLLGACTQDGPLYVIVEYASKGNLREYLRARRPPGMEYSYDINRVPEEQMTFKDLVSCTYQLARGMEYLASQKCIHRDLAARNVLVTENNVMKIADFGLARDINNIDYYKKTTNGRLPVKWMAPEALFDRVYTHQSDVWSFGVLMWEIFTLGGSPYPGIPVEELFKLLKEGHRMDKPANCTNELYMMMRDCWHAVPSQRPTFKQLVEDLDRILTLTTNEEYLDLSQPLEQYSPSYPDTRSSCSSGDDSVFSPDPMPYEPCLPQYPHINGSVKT

- IC50 [1]: 0.89 nM
- IC50 [2]: 0.64 nM
- Activity (Cell membrane): Dose-Dependent Effect
- remaining at 5 min, 1 µM [21]: 85%
- remaining at 0.5 h, 1 µM [22]: 43.7%
- remaining at 5 min, 1 µM [23]: 73.4%
- remaining at 0.25 h, 1 µM [24]: 40%
- remaining at 5 min, 1 µM [25]: 61.5%
- remaining at 0.75 h, 1 µM [26]: 3.58%
- CLint scaled at 1 µM [27]: 156 mL/min/kg
- IC50 (MDA-MB-231 [33]): 1890 nM
- IC50 (HepG2): 7930 nM
Compound: C=CC(=O)Nc1ccc(Cn2cnc3c(-c4cc(OC)cc(OC)c4)ncnc32)cc1
- Activity (MDA-MB-231 [3]): 50.81%
- Activity (MDA-MB-231 [4]): 14.94%
- Activity (MDA-MB-231 [5]): 34.25%
- Activity (MDA-MB-231 [6]): 66.5%
- Activity (MDA-MB-231 [7]): 10.68%
- Activity (MDA-MB-231 [8]): 22.82%
- Activity (MDA-MB-231 [9]): 15.49%
- viability at 2.5 µM (MDA-MB-231 [10]): 64.9%
- Activity (MDA-MB-231 [11]): 6.16%
- Activity (MDA-MB-231 [12]): 2.66%
- Activity (MDA-MB-231 [13]): 34.92%
- Activity (MDA-MB-231 [14]): 45.4%
- Activity (MDA-MB-231 [15]): 56.8%
- Activity (MDA-MB-231 [16]): Dose-Dependent Effect
- Activity (MDA-MB-231 [17]): Dose-Dependent Effect
- Activity (MDA-MB-231 [18]): Dose-Dependent Effect
- Activity (MDA-MB-231 [19]): inactive
- Activity (MDA-MB-231 [20]): inactive
- inhibition in vivo at 10 mg/kg (MDA-MB-231 [28]): 40.2%
- inhibition in vivo at 20 mg/kg (MDA-MB-231 [29]): 64.2%
- Activity [30]: Non-Toxic
- Activity [31]: Non-Toxic
- Activity [32]: Non-Toxic
